Source: BindingDB's records for doi:10.1021/jm050654o (University of Bari Aldo Moro, 2005)

assay: Antiproliferative activity mediated by sigma 1 receptor in rat C6 glioma cells by MTT assay

| Structure (SMILES) | EC50 [µM] |
| --- | --- |
| CCCN(CCC)CCc1ccc(OC)c(OCCc2ccccc2)c1 | 10.7 |
| COc1ccc2c(CCCCN3CCC(C)CC3)cccc2c1 | 25.5 |

Continued by falling EC50, values first:

| EC50 [µM] | Structure (SMILES) |
| --- | --- |
| 40.2 | COc1ccc2c(CCCN3CCCC(C)(C)C3)cccc2c1 |
| 19.4 | COc1ccc2c(CCCCN3CCCCC3)cccc2c1 |
| 15 | COc1ccc2c(CCCCN3CCCC(C)(C)C3)cccc2c1 |
